The nature of data set [1]: Isothermal glucose titrations from fluorescent landscapes (Roche LightCycler). The format is binding. As for the experimental part: (§1) The titration series were mixed with GGBP183C⋅acrylodan or BD_SM4⋅acrylodan conjugates in 384-well microtiter plates. The temperature dependence of the titrations was measured in a real-time PCR machine (Roche LightCycler 480) by determining the ratio of fluorescence emission intensities at 488, 510, and 580 nm (excitation at 440 nm) as a function of temperature (290-370K). Temperatures were advanced in 1K steps. At each temperature data was collected for at 1-second intervals for 60 seconds at which point the signal had relaxed to a steady value associated with the new temperature. Collection times were adjusted to minimize photobleaching (which was not detectable under these experimental conditions). Data reduction software was developed to convert these observations into time-independent datasets that record fluorescence as a function of temperature for each well and associate wells with their concentration of titrant and additive. Management tools were developed to maintain a database of titrations and their analyses.
The response of acrylodan to glucose binding was separated from the effects of thermal denaturation by extracting binding isotherms within the temperature range where the apo-protein remains >99% folded (T<320 K; FIG. 7). Within this temperature range, binding isotherms were constructed by extracting fluorescence values across different wells, each containing different glucose concentrations, at a given temperature, and fit individually with high accuracy to isotherms (FIG. 8):
using linear baselines which vary individually in accordance with the tilt of the S, S1, and S2 baseplanes that correspond the saturated glucose complex. The individually fit Kd(T) values were converted into ΔGb(T) and fit to the Gibbs-Helmholtz equation 9 (FIG. 9).
(§2) Analysis of mutant affinity values: Isothermal glucose titrations were extracted from the fluorescent landscape or emission datasets as described above. Monochromatic emission intensities Iλ. (these intensities correspond to a bandpass intensity recorded with a physical filter in the case of the Roche LightCycler) were fit to
(§3) where ^apoIλ2 ^apoIλ2 and ^satIλ2^satIλ2 are the emission intensities of the monochromatic signal at wavelength λ2λ2 of the ligand-free and ligand-bound protein, respectively. Equation 28 illustrates that the ^appKd ^appKd values obtained by fits of 25 to ratiometric signals are wavelength dependent. To obtain wavelength-independent values needed for comparison of mutant proteins, it is necessary to simultaneously fit ^appKd ^appKd to the ratiometric signal and ^trueKd ^trueKd to the two monochromatic signals. For a given isothermal titration, values for ^appKd ^appKd and ^trueKd ^trueKd were obtained using a non-linear fitting algorithm in which these two parameters were simultaneously fit to the three experimental binding isotherms using equations 23 and 27, with the two monochromatic isotherms sharing the same ^trueKd ^trueKd value. Three separate pairs of linear ^apoβ ^apoβ and ^satβ ^satβ baselines were fit in this procedure. TABLES 1-5 record the ^trueKd ^trueKd values at 25° C., obtained by analysis of Roche LightCycler data in 488 nm and 510 nm channels. The uncertainty of the fit (‘error’) was obtained using a boot-strapping technique in which 37% of the data was replicated. In all cases, no binding was recorded if one of ^appKd ^appKd or ^trueKd ^trueKd exceeded 200 mM. The glucose constant of GGBP183 C-acrylodan is 4.21±0.08 mM at 25° C.

Data set [2] in a line: Galactose affinities of the mutants that bind glucose (Roche LightCycler). The format is binding. The conditions noted are these: trueKd at 25° C., 183C acrylodan conjugates, read-out: Kd^298K(galactose)/mM.
Text: as §2, §3
The galactose affinities for those mutants that bind glucose were also determined.

Data set [3] is described as follows: Thermal denaturation followed by fluorescence ratio, two-state fit. The settings on record: for Tm/K: thermal stability of the 183C acrylodan conjugate mutant. It counts as physicochemical. The method, then:
as §1
Fits of these equation systems to experimental observations such as shown in FIG. 5 require good initial estimates of the parameters. These can then be refined using multi-dimensional conjugate gradient methods. To obtain local fits for protein thermostability in the absence of ligand we solve
This gives excellent fits (FIG. 7).

Data set [4] can be described thus: Fluorescence emission response to ligand binding. Also on record: key to Response Intensity^c: +, increases in response to ligand; —: decreases; 0, no change in the glucose titration; key to Response Shape^b: m, monochromatic; d, dichromatic (i.e. spectral shape changes); 0, no change in the glucose titration. The settings on record: for Response Intensity^c / Response Shape^b: glucose titration, Nanodrop3300, room temperature. As for the experimental part: as §1
(§4) In addition to the Roche LightCycler, which has a limited choice of emission wavelengths, data for selected mutants also was measured at room temperature on a Nanodrop3300 (Thermo Scientific) fluorimeter, which records full emission spectra. Emission intensities at a particular wavelength were extracted by integration of the spectral emission intensities over a 20-nm interval centered on that wavelength.

Data set [5] can be described thus: Galactose titration at room temperature on Nanodrop3300 fluorimeter. The settings on record: ^e noisy data. The format is binding. As for the experimental part:
as §4
(§5) Signals S (either single-wavelength emission intensities, LT, or ratios of intensities at two wavelengths, Rig) were fit to ligand-binding isotherms:
(§6) where [L] is the ligand concentration and Kd the dissociation constant corresponding to ^appKd or ^trueKd for fits to R12 (weighted by the relative contributions of ^satβ at the two different wavelengths) and Iλ respectively. For a given isothermal titration, values for ^appKd and ^true Kd were obtained using a non-linear fitting algorithm in which these two parameters were simultaneously fit to the three experimental binding isotherms using equations 29 and 30, with the two monochromatic isotherms sharing the same ^trueKd value. Three separate pairs of ^apoβ and ^satβ were fit in this procedure.

Data set [6] in a line: Glucose titration at room temperature on Nanodrop3300 fluorimeter. It counts as binding. The method, then: as §4, §5, §6
The nature of data set [7]: Isothermal glucose titrations from fluorescent landscapes (Roche LightCycler). The format is binding. This is another data set of the same source.
The nature of data set [8]: Ca2+ binding followed through thermal stability shifts in the absence of glucose. The conditions noted are these: 37° C. The source says:
GGBP binds Ca^2+ at a location remote from glucose (FIG. 1). The binding of Ca^2+ was investigated in the absence of glucose (FIG. 12). […] Nevertheless, Ca^2+ binding can be followed through its effect on protein stability (FIG. 13). […] However, at elevated concentrations, this stabilization effect levels off and addition of Ca^2+ becomes destabilizing. […] These effects can be modeled accurately by a fit of the ligand- and temperature-dependent free energy of stability for Ca^2+ (Judge et al. Diabetes Technol. Thera. 2011, 13, 309-317; Layton et al. Biochemistry 2010, 49, 10831-10841). The individual terms are cast in terms of T and [Ca^2+] using equations 4-9. However, rather than fitting fluorescent landscape data directly using 1, Tm and ΔHu, values are extracted at each Ca^2+ concentration using 16 and 17, and fit to the equation system by determining the root of 19 to obtain the calculated Tm value.

The mark [9] stands for this setting: trueKd at 25° C., 183C acrylodan conjugates, LightCycler 488 nm and 510 nm channels, ± = bootstrap uncertainty of fit, read-out: Kd^298K(glucose)/mM.
The mark [10] stands for this setting: apparent, ratiometric signal at the listed wavelength pair, read-out: Affinities (mM)^d Galactose ^appKd.
Where [11] appears, read: from monochromatic signals, read-out: Affinities (mM)^d Galactose ^trueKd.
The mark [12] stands for this setting: apparent, ratiometric signal at the listed wavelength pair, read-out: Affinities (mM)^d Glucose aPPKa.
Setting [13] is: from monochromatic signals, read-out: Affinities (mM)^d Glucose trueKa.
Setting [14] is: 37° C., mutations in GGBP183C⋅acrylodan, read-out: glucose Kd values at 37° C.

In the case of “A155H: GGBP 183C acrylodan conjugate with mutation A155H”, the Kd amounted to 13.5 ± 2.5 mM in data set [1] (setting [9]) and 17.7 ± 2.1 mM in data set [2]. In addition, the Tm/K in data set [3] came to 314 K.
As to “A155N: GGBP 183C acrylodan conjugate with mutation A155N”, the “effect of glucose binding on fluorescence” value in data set [4] (488/580 ratio) is on record as “increases the 488/580 ratio”. Further, in data set [4], the “Response Intensity^c” value is reported as “—”. In addition, the “Response Shape^b” value in data set [4] is reported as “d”. The Kd in data set [1] (setting [9]) is 5.9 ± 1 mM; in data set [2], 7.5 ± 1 mM; in data set [5] (setting [10]) it was 4.5 mM; in data set [5] (setting [11]), 6.6 mM; in data set [6] (setting [12]), 0.14 mM; in data set [6] (setting [13]) it was 0.23 mM. For the same substance, the Kd in data set [7] (setting [14]) was roughly 13 mM. The Tm/K in data set [3] was found to be 320 K.
As for “D14A: GGBP 183C acrylodan conjugate with mutation D14A”, the Kd in data set [2] is 90 ± 21 mM. Moreover, the Tm/K in data set [3] is 317 K.
In the case of “E149K: GGBP 183C acrylodan conjugate with mutation E149K”, in data set [4], the “Response Intensity^c” value is “—”. For the same substance, in data set [4], the “Response Shape^b” value is “d”. For the same substance, the Kd was determined as 1.44 ± 0.04 mM in data set [1] (setting [9]); 40.2 ± 1.3 mM in data set [2]; 34 mM in data set [5] (setting [10]); 27 mM in data set [5] (setting [11]); 1.5 mM in data set [6] (setting [12]); 1.2 mM in data set [6] (setting [13]). For the same substance, in data set [7] (setting [14]), the Kd is roughly 0.5 mM. Moreover, the Tm/K in data set [3] is listed as 321 K.
“E149Q: GGBP 183C acrylodan conjugate with mutation E149Q”: the “Response Intensity^c” value in data set [4] is reported as “—”. Besides, the “Response Shape^b” value in data set [4] is listed as “d”. Moreover, the Kd in data set [1] (setting [9]) came to 0.46 ± 0.01 mM; in data set [2] it was 10.8 ± 0.4 mM; in data set [5] (setting [10]), 2.3 mM; in data set [5] (setting [11]), 2.1 mM; in data set [6] (setting [12]), 0.6 mM; in data set [6] (setting [13]) it was 0.43 mM. Moreover, the Kd in data set [7] (setting [14]) is roughly 0.5 mM. The Tm/K in data set [3] worked out at 322 K.
Turning to “E149S: GGBP 183C acrylodan conjugate with mutation E149S”, in data set [4], the “Response Intensity^c” value is recorded as “—”. Also, the “Response Shape^b” value in data set [4] was “d”. Besides, the Kd is 0.34 ± 0.01 mM in data set [1] (setting [9]); 12.7 ± 15 mM in data set [2]; 6.8 mM in data set [5] (setting [10]); 5.4 mM in data set [5] (setting [11]); 0.38 mM in data set [6] (setting [12]); 0.36 mM in data set [6] (setting [13]). Moreover, the Kd in data set [7] (setting [14]) was roughly 0.5 mM. Further, the Tm/K in data set [3] came to 320 K.
As for “GGBP183C⋅acrylodan: E. coli glucose-galactose binding protein W183C mutant conjugated to acrylodan; parent sensor”, the Kd in data set [8] (read-out: Ca^2+ affinity in the native state at a single site) is roughly 0.01 µM; in data set [8] (read-out: calculated Kd for Ca2+, single folded state site), 0.0108 µM; in data set [8] (read-out: calculated Kd for Ca2+, single, medium-affinity denatured state), 370 µM; in data set [8] (read-out: calculated Kd for Ca2+, two, low-affinity denatured states) it was 8800 µM; in data set [1] (25° C., read-out: glucose constant) it was 4.21 ± 0.08 mM; in data set [5] (setting [10]), 31 mM. Also, the Kd in data set [5] (setting [11]) is 24 mM; in data set [6] (setting [12]) it was 6 mM; in data set [6] (setting [13]), 4.4 mM; in data set [7] (37° C. (310K), fit of equation 18, read-out: Kd, glucose binding isotherm), 6.58 ± 0.03 mM. Moreover, in data set [4], the “Response Intensity^c” value is recorded as “—”. Further, in data set [4], the “Response Shape^b” value is “d”. Also, the “decrease in the affinity for glucose compared to the wild-type protein” value in data set [1] is listed as 10,000 fold. For the same substance, in data set [3] (apo-protein, two-state fit), the apoTm was found to be 322.2 K. Moreover, the ΔapoHu in data set [3] (apo-protein, two-state fit) is reported as 197.3 kcal/mol.
Consider “H152N: GGBP 183C acrylodan conjugate with mutation H152N”, for which the “Response Intensity^c” value in data set [4] is “—”. Moreover, the “Response Shape^b” value in data set [4] is on record as “d”. For the same substance, the Kd was 18.8 ± 1.3 mM in data set [1] (setting [9]); 21 mM in data set [5] (setting [10]); 21 mM in data set [5] (setting [11]); 20 mM in data set [6] (setting [12]); 15 mM in data set [6] (setting [13]); roughly 14 mM in data set [7] (setting [14]). Moreover, the Tm/K in data set [3] was 322 K.
As for “H152Q: GGBP 183C acrylodan conjugate with mutation H152Q”, in data set [4], the “Response Intensity^c” value is given as “—”. Besides, the “Response Shape^b” value in data set [4] is “d”. Moreover, the Kd in data set [1] (setting [9]) is 25.8 ± 2 mM; in data set [6] (setting [12]), 4.6 mM; in data set [6] (setting [13]), 5.1 mM; in data set [7] (setting [14]), roughly 36 mM. In addition, the Tm/K in data set [3] amounted to 322 K.

(Values after patent US20220411847A1, “GLUCOSE/GALACTOSE BIOSENSORS AND METHODS OF USING SAME” (Duke University, priority 2015, published 2022).)
